From ChEMBL document CHEMBL1201862, “PubChem BioAssay data set” (2004)
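Dose response: 5 concentrations. Exposure: 48 h. Format: 96-well plates. Endpoint: linear interpolation; highest concentration if not reached. Abbreviation: GI50, concentration required for 50% inhibition of growth.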 The source made the active and inactive calls. Cut-off read from the data, not from the text of the source: active = GI50 up to about 1.1 µM and inactive = higher.

Tests used:
Test in all cases: NCI anticancer screen, dose series, 48 h
NCI-H226 = system: NCI-H226
U-251 = system: U-251
EKVX = system: EKVX
BT-549 = system: BT-549
HL-60 = system: HL-60
SW-620 = system: SW-620
M14 = system: M14
MCF7 = system: MCF7
UACC-257 = system: UACC-257
786-0 = system: 786-0
Hs-578T = system: Hs-578T
SK-MEL-2 = system: SK-MEL-2
IGROV-1 = system: IGROV-1
RXF 393 = system: RXF 393
K562 = system: K562
SF-539 = system: SF-539
SNB-75 = system: SNB-75
OVCAR-5 = system: OVCAR-5
HCC 2998 = system: HCC 2998

Row | Compound | GI50 (NCI-H226) | GI50 (U-251) | GI50 (EKVX) | GI50 (BT-549) | GI50 (HL-60) | GI50 (SW-620) | GI50 (M14) | GI50 (MCF7) | GI50 (UACC-257) | GI50 (786-0) | GI50 (Hs-578T) | GI50 (SK-MEL-2) | GI50 (IGROV-1) | GI50 (RXF 393) | GI50 (K562) | GI50 (SF-539) | GI50 (SNB-75) | GI50 (OVCAR-5) | GI50 (HCC 2998)
1 | COc1cc2c(/C=C3/C(=O)Nc4ccc(O)cc43)c(Cl)[nH]c2cc1C | 0.258 µM (active) | 0.0521 µM (active) | 0.679 µM (active) | 0.139 µM (active) | 0.0343 µM (active) | 0.0955 µM (active) | 0.0897 µM (active) | 0.0748 µM (active) | 0.615 µM (active) | 0.173 µM (active) | 0.0989 µM (active) | 0.883 µM (active) | 0.441 µM (active) | 0.176 µM (active) | 0.0382 µM (active) | 0.0447 µM (active) | 0.143 µM (active) | 0.618 µM (active) | –
2 | O=C(c1ccsc1)c1nccc2c1cnc1ccccc12 | 34.8 µM (inactive) | 85.1 µM (inactive) | 15.6 µM (inactive) | > 100 µM (inactive) | 2.47 µM (inactive) | > 100 µM (inactive) | > 100 µM (inactive) | 47.2 µM (inactive) | 45.2 µM (inactive) | 97.7 µM (inactive) | 17 µM (inactive) | > 100 µM (inactive) | 0.286 µM (active) | 84.9 µM (inactive) | – | > 100 µM (inactive) | 30.5 µM (inactive) | 49.8 µM (inactive) | –
3 | Cc1ccccc1Nc1nc(NNC(=O)Cc2ccccc2)nc(NNC(=O)c2ccncc2)n1 | – | > 10 µM (inactive) | > 10 µM (inactive) | > 10 µM (inactive) | > 10 µM (inactive) | – | > 10 µM (inactive) | > 10 µM (inactive) | > 10 µM (inactive) | > 10 µM (inactive) | > 10 µM (inactive) | – | > 10 µM (inactive) | – | > 10 µM (inactive) | > 10 µM (inactive) | > 10 µM (inactive) | – | > 10 µM (inactive)
4 | CCOC(=O)C(CO)c1nc2c([nH]c1=O)c(=O)n(C)c(=O)n2C (stereo unspecified) | > 100 µM (inactive) | > 100 µM (inactive) | > 100 µM (inactive) | > 100 µM (inactive) | > 100 µM (inactive) | > 100 µM (inactive) | > 100 µM (inactive) | > 100 µM (inactive) | > 100 µM (inactive) | > 100 µM (inactive) | > 100 µM (inactive) | > 100 µM (inactive) | > 100 µM (inactive) | – | > 100 µM (inactive) | > 100 µM (inactive) | – | > 100 µM (inactive) | > 100 µM (inactive)
5 | COc1cc2c(cc1OC)C(=O)/C(=C/c1cc(OC)c(OC)c(OC)c1)C2 | > 100 µM (inactive) | > 100 µM (inactive) | – | 36.9 µM (inactive) | > 100 µM (inactive) | – | 96.6 µM (inactive) | > 100 µM (inactive) | – | – | > 100 µM (inactive) | > 100 µM (inactive) | > 100 µM (inactive) | > 100 µM (inactive) | > 100 µM (inactive) | – | > 100 µM (inactive) | > 100 µM (inactive) | –
6 | NC(CC(=O)O)(Cc1ccccc1)C(=O)O (stereo unspecified) | > 100 µM (inactive) | > 100 µM (inactive) | > 100 µM (inactive) | > 100 µM (inactive) | > 100 µM (inactive) | > 100 µM (inactive) | > 100 µM (inactive) | > 100 µM (inactive) | > 100 µM (inactive) | > 100 µM (inactive) | > 100 µM (inactive) | > 100 µM (inactive) | > 100 µM (inactive) | > 100 µM (inactive) | > 100 µM (inactive) | > 100 µM (inactive) | > 100 µM (inactive) | > 100 µM (inactive) | –
7 | Cn1c2c(c3ccccc31)CCN1C(=O)C3SC21C1C(=O)N(c2ccccc2)C(=O)C31 (stereo unspecified) | 40.3 µM (inactive) | > 100 µM (inactive) | > 100 µM (inactive) | > 100 µM (inactive) | 25 µM (inactive) | 36.8 µM (inactive) | > 100 µM (inactive) | 30.4 µM (inactive) | 20 µM (inactive) | > 100 µM (inactive) | > 100 µM (inactive) | 0.0256 µM (active) | > 100 µM (inactive) | > 100 µM (inactive) | 40.4 µM (inactive) | 39.7 µM (inactive) | – | > 100 µM (inactive) | –
8 | CSc1ncnc2c1ncn2C1OC(CO)C(O)OC1O (stereo unspecified) | – | 9.35 µM (inactive) | 0.624 µM (active) | 1.83 µM (inactive) | 1.97 µM (inactive) | 1.51 µM (inactive) | 1.14 µM (inactive) | 0.262 µM (active) | 0.902 µM (active) | 0.785 µM (active) | 20.9 µM (inactive) | 2.76 µM (inactive) | 0.897 µM (active) | 11.7 µM (inactive) | 1.16 µM (inactive) | 1.73 µM (inactive) | 10.9 µM (inactive) | 2.01 µM (inactive) | –
